Source: PMC8215677 (Frontiers in Pharmacology, 2021)
Counter-ions that a name gives are not always drawn. Like-named read-outs stand apart in the source and are kept apart here. Marks after values point to notes of the source that are not given here.

How the values were obtained:
[1] = tested on: intestinal paracellular tight junctions (mouse gut sac); experiment: Transportation of FD4 across mouse gut sacs (tight junction integrity); format: in vitro ADME
Method: Fluorescein isothiocyanate-labeled dextran (FD4) with a molecular weight of 4,400 g/moL, is usually used to test the integrity of intestinal paracellular tight junctions ([Ma et al., 2012]). The influence of various NADES dilutions (1, 3, and 10%) on the in vitro transportation of FD4 (3 mg/ml) across the mouse gut sac was determined. The concentrations of FD4 were determined using a fluorescence microplate reader (BioTek Instruments, Winooski, VT, United States), with excitation and emission at 485 and 528 nm, respectively, ([Ma et al., 2012]). In addition, the effects of NADES dilutions pretreatment on the transportation of FD4 across the mouse gut sacs were also determined. Several mice were orally administered with 10% NADES aqueous solution. The intestines were collected after 4 h, completely washed with blank Krebs-Ringer buffer, and subsequently used for the transportation study.

MDCK-MDR1 cells = experiment: Cytotoxicity in MDCK-MDR1 cells (CCK-8); settings: 4 and 24 h; for Cytotoxicity: p > 0.05
Method: The cells were seeded into 96 well plate at the density of 3 × 10^4 cells per well. After 24 h incubation in the incubator, the culture medium was carefully sucked out, and then 200 μL DMEM medium containing 0.1, 0.3, 1 or 3% NADES was added. The control well was added with the same volume of DMEM medium. After incubation for 4 h or 24 h, 10% CCK-8 solution was added. After incubation for another 2 h, the absorbance at 450 nm was measured by using a microplate reader. The cytotoxicity of the NADES dilutions was evaluated by comparing the absorbance of the treatment groups to that of the control group.
The above method was also used to evaluate the cytotoxicity of different concentrations of malic acid, i.e., 4.90, 1.47 or 0.49 mg/ml, which were, respectively, equal to the concentrations of malic acid in the 1, 0.3 or 0.1% dilutions of the NADES.

ICR mice = experiment: Acute toxicity in mice; format: in vivo; settings: malic acid 9,800, 2,940 or 980 mg/kg oral
Method: Sixty ICR mice were randomly divided into three groups according to gender and body weight, with 20 mice in each group. After fasting for 12 h, the mice were orally administered with 0.2 ml/10 g body weight the NADES (the four-component NADES prepared with 350 μL water, the same below) or its 30 and 10% water dilutions, respectively. The symptoms of the mice were then observed, and the death time and the number of dead mice within 3 days were recorded.
The above method was also used to evaluate the acute toxicity of malic acid at different dosages, i.e., 9,800, 2,940, or 980 mg/kg, which were, respectively, equal to the dosages of malic acid in the NADES and its 30%, and10% water dilutions.

mouse gut sacs = experiment: Transportation of BBR in mouse gut sacs; format: in vitro ADME; settings: BBR 200 μg/ml
Method: After incubation, aliquots of buffer (100 μL) were, respectively, taken from the serosal side or mucosal side every 15–60 min and replaced with an equal volume of blank Krebs-Ringer buffer. The LC-MS system (Quantification of several Coptidis Rhizomaalkaloids) was used for the quantitative analysis of BBR.

[2] = Transportation of BBR across MDCK-MDR1 cell monolayer; format: in vitro ADME, canine; settings: dog, MDCK-MDR1
Method: (§1) MDCK-MDR1 cells were seeded on a Merck Transwell polycarbonate membrane (NJ, United States) at a density of 2 × 10^5 cells/mL. The cells were cultured until the tight junctions were formed (transepithelial electrical resistance value >500 Ω cm2). Before the experiment, the media on both sides of the chamber were replaced with a warmed HBSS solution. The cells were then incubated for 20 min at 37°C.
(§2) The unit of P app is cm/sec.

MDCK-MDR1 cell monolayer = experiment: as above; format: in vitro ADME, canine; settings: for P app (AP-BL) / P app (BL-AP) / ERs (efflux rate): BBR 10 μg/ml
Method: as §1, §2

[3] = Pharmacokinetics of oral BBR in mice (portal vein and liver); format: in vivo, mice; settings: for AUC0-∞ / AUC0–12 h / Cmax / MRT / Tmax / half-life / AUC(0-inf) / AUC(0-t): mice; for AUC(0-t): read-out: AUC0–12 h
Method: The dosages of malic acid were, respectively, equal to the dosages of malic acid in the 1 and 10% water dilutions of the NADES. […] Six mice in each group were anesthetized using diethyl ether at 0.25, 0.5, 1, 2, 3, 4, 6, 8, or 12 h after administration. Blood samples were then collected from the portal vein into heparin-containing tubes. The plasma samples were obtained by centrifugation of the blood samples at 1,000 g for 10 min at 4°C. The livers of the mice were collected and homogenized in 10 × volume of water. At the end of the experiment, the mice were euthanized by cervical dislocation.
A non-compartmental analysis using WinNonlin® software (Pharsight, CA, United States) was performed to obtain the pharmacokinetic parameters of berberine in mice. It should be noted that the pharmacokinetic parameters were calculated based on the average drug concentration at each time point because the mice were not continuously sampled.

[4] = Solubility of berberine hydrochloride in the NADES, its water dilutions and malic acid solutions; format: physicochemical
Method: BBR was dissolved in pure water as a control. The solutions were ultrasonically treated for 1 h, and after full vortexing, the solutions were placed at room temperature for 1 h. Next, the solutions were centrifuged at 20,000 g for 10 min at 20°C. The obtained supernatant was filtered through a 0.22 μm membrane. The filtered solution was diluted with a certain volume of methanol, followed by injection into the LC-MS system for the quantitative analysis of BBR (Quantification of several Coptidis Rhizomaalkaloids).
The concentrations of the primary metabolites were equal to their concentrations in the NADES, i.e., 490.5 mg/ml, 280.6 mg/ml, 517.7 mg/ml, and 19.0 mg/ml, respectively.

[5] = ref Liu et al., cited from earlier work
[6] = livers, oral BBR 200 mg/kg dissolved in water (Control)
[7] = livers, oral BBR 200 mg/kg in 1% NADES dilution
[8] = livers, oral BBR 200 mg/kg in 10% NADES dilution
[9] = livers, oral BBR 200 mg/kg in malic acid solution 98 mg/kg
[10] = livers, oral BBR 200 mg/kg in malic acid solution 980 mg/kg
[11] = mouse, liver, po, 200 mg/kg, livers, oral BBR 200 mg/kg dissolved in water (Control)
[12] = mouse, liver, po, 200 mg/kg, livers, oral BBR 200 mg/kg in 1% NADES dilution
[13] = mouse, liver, po, 200 mg/kg, livers, oral BBR 200 mg/kg in 10% NADES dilution
[14] = mouse, liver, po, 200 mg/kg, livers, oral BBR 200 mg/kg in malic acid solution 98 mg/kg
[15] = mouse, liver, po, 200 mg/kg, livers, oral BBR 200 mg/kg in malic acid solution 980 mg/kg
[16] = mouse, portal vein plasma, po, 200 mg/kg, portal vein, oral BBR 200 mg/kg dissolved in water (Control)
[17] = mouse, portal vein plasma, po, 200 mg/kg, portal vein, oral BBR 200 mg/kg in 1% NADES dilution
[18] = mouse, portal vein plasma, po, 200 mg/kg, portal vein, oral BBR 200 mg/kg in 10% NADES dilution
[19] = mouse, portal vein plasma, po, 200 mg/kg, portal vein, oral BBR 200 mg/kg in malic acid solution 98 mg/kg
[20] = mouse, portal vein plasma, po, 200 mg/kg, portal vein, oral BBR 200 mg/kg in malic acid solution 980 mg/kg

## O=C(O)CC(O)C(=O)O (centres unmarked) [malic acid]
[1]; malic acid 4.9, 14.7, 49.0 mg/ml present, concentration dependent, p < 0.01
  Effect on absorption of FD4 across mouse gut sacs: increased the absorption
[1]; malic acid pretreatment for 4 h
  Reversibility of the effect on FD4 absorption: reversible
MDCK-MDR1 cells; 0.49 mg/ml malic acid
  Cytotoxicity: no significant cytotoxicity
MDCK-MDR1 cells; 1.47 mg/ml malic acid
  Cytotoxicity: no significant cytotoxicity
MDCK-MDR1 cells; 4.9 mg/ml malic acid, p < 0.01
  Cell viability: completely lost
ICR mice
  Acute toxicity: significant acute toxicity
Mouse gut sacs; malic acid 14.7 mg/ml or more
  Effect on efflux of BBR in gut sacs: promoted the efflux
Mouse gut sacs; malic acid 4.9–49.0 mg/ml, concentration-dependent
  Effect on absorption of BBR in gut sacs: promoted the absorption

## COc1ccc2cc3[n+](cc2c1OC)CCc1cc2c(cc1-3)OCO2 [BBR, Berberine hydrochloride]
[2]
  Papp A→B at 10 μg/ml: 0.41 ± 0.06 ×10⁻⁶ cm/s
  Papp B→A at 10 μg/ml: 13.3 ± 0.4 ×10⁻⁶ cm/s
MDCK-MDR1 cell monolayer; with 0.3% NADES
  P app (AP-BL): 0.88 ± 0.13 ×10^−6 cm/s
  P app (BL-AP): 13.1 ± 1.9 ×10^−6 cm/s
MDCK-MDR1 cell monolayer; with 0.3% NADES, p < 0.05 vs Control
  ERs (efflux rate): 14.9*
MDCK-MDR1 cell monolayer; with 1% NADES
  P app (AP-BL): 20.1 ± 8.7 ×10^−6 cm/s
  P app (BL-AP): 21.7 ± 1.4 ×10^−6 cm/s
MDCK-MDR1 cell monolayer; with 1% NADES, p < 0.01 vs Control
  ERs (efflux rate): 1.1**
MDCK-MDR1 cell monolayer; BBR alone
  P app from AP to BL: lower than 10^−6 cm/s
[3]; [6]
  AUC0-∞: 68.4 μg·h/g liver
  AUC0–12 h: 66.3 μg·h/g liver
  Cmax: 16.7 μg/g liver
[3]; [7]
  AUC0-∞: 80.9 μg·h/g liver
  AUC0–12 h: 74.5 μg·h/g liver
  Cmax: 29.3 μg/g liver
[3]; [8]
  AUC0-∞: 112.5 μg·h/g liver
  AUC0–12 h: 109.4 μg·h/g liver
  Cmax: 34.8 μg/g liver
[3]; [9]
  AUC0-∞: 73.8 μg·h/g liver
  AUC0–12 h: 72.3 μg·h/g liver
  Cmax: 38.0 μg/g liver
[3]; [10]
  AUC0-∞: 88.3 μg·h/g liver
  AUC0–12 h: 85.9 μg·h/g liver
  Cmax: 30.0 μg/g liver
[3]; mouse, in vivo, po
  Toxic reaction after oral administration: no toxic reaction
[3]; [11]
  MRT: 3.7 h
  Tmax: 2 h
  half-life: 2.2 h
[3]; [12]
  MRT: 3.2 h
  Tmax: 2 h
[3]; [13]
  MRT: 3 h
  Tmax: 1 h
  half-life: 2.2 h
[3]; [14]
  MRT: 3 h
  Tmax: 2 h
  half-life: 2.3 h
[3]; [15]
  MRT: 2.5 h
  Tmax: 1 h
  half-life: 1.5 h
[3]; [16]
  AUC(0-inf): 1130 ng·h/mL
  MRT: 3.1 h
  Tmax: 2 h
  half-life: 1.7 h
  AUC(0-t): 1120 ng·h/mL
[3]; mouse, portal vein plasma, po, 200 mg/kg, portal vein, oral BBR 200 mg/kg dissolved in water (Control), read-out: Cmax
  Cmax: 321 ng/mL
[3]; [17]
  AUC(0-inf): 2740 ng·h/mL
  MRT: 2.9 h
  Tmax: 2 h
  half-life: 1.3 h
  AUC(0-t): 2730 ng·h/mL
[3]; mouse, portal vein plasma, po, 200 mg/kg, portal vein, oral BBR 200 mg/kg in 1% NADES dilution, read-out: Cmax
  Cmax: 975 ng/mL
[3]; [18]
  AUC(0-inf): 3610 ng·h/mL
  MRT: 2.4 h
  Tmax: 1 h
  half-life: 1.7 h
  AUC(0-t): 3590 ng·h/mL
[3]; mouse, portal vein plasma, po, 200 mg/kg, portal vein, oral BBR 200 mg/kg in 10% NADES dilution, read-out: Cmax
  Cmax: 1470 ng/mL
[3]; [19]
  AUC(0-inf): 2300 ng·h/mL
  MRT: 2.7 h
  Tmax: 2 h
  half-life: 2.7 h
  AUC(0-t): 2230 ng·h/mL
[3]; mouse, portal vein plasma, po, 200 mg/kg, portal vein, oral BBR 200 mg/kg in malic acid solution 98 mg/kg, read-out: Cmax
  Cmax: 972 ng/mL
[3]; [20]
  AUC(0-inf): 3070 ng·h/mL
  MRT: 2.1 h
  Tmax: 1 h
  half-life: 1.4 h
  AUC(0-t): 3060 ng·h/mL
[3]; mouse, portal vein plasma, po, 200 mg/kg, portal vein, oral BBR 200 mg/kg in malic acid solution 980 mg/kg, read-out: Cmax
  Cmax: 1250 ng/mL
[4]; NADES (undiluted), in the NADES (100%), room temperature (20°C)
  solubility: ≥ 20 mg/mL
[4]; as the pH of the malic acid solution was increased by addition of NaOH, p < 0.01
  Solubility of berberine hydrochloride: increased
[4]; in 10% water dilution of NADES, p < 0.01
  Solubility of BBR compared with water: higher
[4]; in 30% water dilution of NADES, p < 0.01
  Solubility of BBR compared with water: higher
[5]; 2010
  Fraction of oral BBR directly removed with feces: about 56%
  Fraction of oral BBR eliminated by intestinal efflux transporters and drug metabolizing enzymes: about 43.5%
  Oral bioavailability: 0.36%
[5]; 2016
  Fraction of BBR directly discharged from the body after oral administration: about 56%
  Fraction of oral BBR eliminated during intestinal absorption: 43.5%
